What is called GI50 is the concentration giving 50% growth inhibition.

What all share (assay type): cell-based
In assay [1] the test system is HCC827-YVMA cells (human ERBB2 exon20 insertion mutant A775_G776ins YVMA). Briefly: Cell growth inhibition (CellTiter-Glo, 3 days) in HCC827-YVMA. To be noted: 72 h, 3 days after administration. A digest of the protocol: (§1)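 Growth inhibition used a CellTiter-Glo luminescence read-out after 3 days of compound exposure at various concentrations. Cells were plated the day before at 5000/well in RPMI plus 10% FBS. The lines are HCC827 transduced by lentivirus with codon-optimized EGFR ASV or ERBB2 YVMA exon 20 insertions.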

The subject of another assay is A431 cells. Briefly: Cell growth inhibition (CellTiter-Glo, 3 days) in A431. To be noted: Homo sapiens, A-431, 72 h, 3 days after administration. A digest of the protocol: (§2)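 Growth inhibition was scored by CellTiter-Glo luminescence after 3-day compound exposure at various concentrations. Cells were plated at 5000/well the day before treatment: A431 in DMEM and HCC827 in RPMI, each with 10% FBS.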

The subject of another assay is HCC827 cells. Briefly: Cell growth inhibition (CellTiter-Glo, 3 days) in HCC827. The following applies: Homo sapiens, 72 h, 3 days after administration. A digest of the protocol:
as §2
(In general: In ATP-based viability assays light output follows the ATP content of the culture.)

Assay [2] concerns HCC827-SVD cells (human EGFR exon 20 insertion mutant D770_N771 insSVD). Briefly: Cell growth inhibition (CellTiter-Glo, 3 days) in HCC827-SVD. To be noted: 72 h, 3 days after administration. Put shortly:
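HCC827 cells carrying lentiviral codon-optimized EGFR D770_N771 insSVD, with endogenous EGFR knocked out by CRISPR (single clone), seeded at 5000 cells/well in RPMI with 10% FBS. Viability read by CellTiter-Glo luminescence.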

For assay [3], the system named is HCC827-ASV cells (human EGFR exon 20 insertion mutant A769_D770insASV). Briefly: Cell growth inhibition (CellTiter-Glo, 3 days) in HCC827-ASV. To be noted: 72 h, 3 days after administration. Put shortly: as §1

For the compound `C=CC(=O)N1CCC(Nc2cc3c(Nc4ccc(Oc5ccnc(N6CC(C(F)(F)F)C6)c5)cc4F)ncnc3cc2OC)CC1` [Example 161, 1-(4-((4-((2-fluoro-4-((2-(3-(trifluoromethyl)azetidin-1-yl)pyridin-4-yl)oxy)phenyl)amino)-7-methoxyquinazolin-6-yl)amino)piperidin-1-yl)prop-2-en-1-one], the GI50 in assay [1] was less than 30 nM; in the assay on A431 cells, 300 to 600 nM; in the assay with HCC827 cells, 100 to 300 nM; in assay [2], less than 30 nM; in assay [3], less than 30 nM.

As for `C=CC(=O)N1CCC(Oc2cc3c(Nc4ccc(Oc5ccnc(N6CC[C@@H](N(C)C)C6)c5)cc4F)ncnc3cc2OC)CC1` [Example 162, (R)-1-(4-((4-((4-((2-(3-(dimethylamino)pyrrolidin-1-yl)pyridin-4-yl)oxy)-2-fluorophenyl)amino)-7-methoxyquinazolin-6-yl)oxy)piperidin-1-yl)prop-2-en-1-one], the GI50 was 100 to 300 nM in assay [1]; no less than 1000 nM in the assay on A431 cells; 100 to 300 nM in the assay with HCC827 cells; 100 to 300 nM in assay [2]; 100 to 300 nM in assay [3].

Take `C=CC(=O)N1CCC(Oc2cc3c(Nc4ccc(Oc5ccnc(N6C[C@H](OC)[C@H](OC)C6)c5)cc4F)ncnc3cc2OC)CC1` [Example 163, 1-(4-((4-((4-((2-((3R,4S)-3,4-dimethoxypyrrolidin-1-yl)pyridin-4-yl)oxy)-2-fluorophenyl)amino)-7-methoxyquinazolin-6-yl)oxy)piperidin-1-yl)prop-2-en-1-one]: the GI50 was 100 to 300 nM in assay [1]; no less than 1000 nM with A431 cells; no less than 1000 nM in the assay with HCC827 cells; 30 to 60 nM in assay [2]; 30 to 60 nM in assay [3].

`C=CC(=O)N1CCC(Nc2cc3c(Nc4ccc(Oc5ccnc(N6CCC[C@@H](OC)C6)c5)cc4F)ncnc3cc2OC)CC1` [Example 164, (R)-1-(4-((4-((2-fluoro-4-((2-(3-methoxypiperidin-1-yl)pyridin-4-yl)oxy)phenyl)amino)-7-methoxyquinazolin-6-yl)amino)piperidin-1-yl)prop-2-en-1-one]: the GI50 in assay [1] is less than 30 nM; in the assay on A431 cells, 600 to 1000 nM; in the assay on HCC827 cells, 300 to 600 nM; in assay [2], less than 30 nM; in assay [3] it was less than 30 nM.

For the compound `C=CC(=O)N1CCC(Oc2cc3c(Nc4ccc(Oc5cc(N6C[C@@H](C)O[C@@H](C)C6)ncc5Cl)cc4F)ncnc3cc2OC)CC1` [Example 166, 1-(4-((4-((4-((5-chloro-2-((2R,6S)-2,6-dimethylmorpholino)pyridin-4-yl)oxy)-2-fluorophenyl)amino)-7-methoxyquinazolin-6-yl)oxy)piperidin-1-yl)prop-2-en-1-one], the GI50 in assay [1] is 300 to 600 nM; in the assay on A431 cells it was no less than 1000 nM; in the assay on HCC827 cells it was 300 to 600 nM; in assay [2], no less than 1000 nM; in assay [3], 100 to 300 nM.

Consider `C=CC(=O)Nc1cc2c(Nc3ccc(Oc4ccnc(-c5nc(C)cs5)c4)cc3F)ncnc2cc1OCC` [Example 168, N-(7-ethoxy-4-((2-fluoro-4-((2-(4-methylthiazol-2-yl)pyridin-4-yl)oxy)phenyl)amino)quinazolin-6-yl)acrylamide], for which the GI50 in assay [1] is no less than 1000 nM; in the assay on A431 cells it was no less than 1000 nM; in the assay on HCC827 cells it was no less than 1000 nM; in assay [2] it was 300 to 600 nM; in assay [3] it was no less than 1000 nM.

In the case of `C=CC(=O)Nc1cc2c(Nc3ccc(Oc4ccnc(N5C[C@@H](C)O[C@@H](C)C5)c4)cc3F)ncnc2cc1OCC` [Example 169, N-(4-((4-((2-((2S,6R)-2,6-dimethylmorpholino)pyridin-4-yl)oxy)-2-fluorophenyl)amino)-7-ethoxyquinazolin-6-yl)acrylamide], the GI50 (in assay [1]; in the assay on A431 cells; with HCC827 cells; in assay [2]; in assay [3]) was no less than 1000 nM each time.

Take `C=CC(=O)N1CCC(Nc2cc3c(Nc4ccc(Oc5ccnc(N6CC[C@H](O)[C@H](F)C6)c5)cc4F)ncnc3cc2OC)CC1` [Example 170, 1-(4-((4-((2-fluoro-4-((2-((3R,4S)-3-fluoro-4-hydroxypiperidin-1-yl)pyridin-4-yl)oxy)phenyl)amino)-7-methoxyquinazolin-6-yl)amino)piperidin-1-yl)prop-2-en-1-one]: the GI50 in assay [1] was 100 to 300 nM; in the assay with A431 cells, no less than 1000 nM; in the assay with HCC827 cells it was 600 to 1000 nM; in assay [2] it was 60 to 100 nM; in assay [3], 60 to 100 nM.

Consider `C=CC(=O)N1CCC(Nc2cc3c(Nc4ccc(Oc5ccnc(N6CCC(O)C(C)(C)C6)c5)cc4F)ncnc3cc2OC)CC1` (centres unmarked) [Example 171, 1-(4-((4-((2-fluoro-4-((2-(4-hydroxy-3,3-dimethylpiperidin-1-yl)pyridin-4-yl)oxy)phenyl)amino)-7-methoxyquinazolin-6-yl)amino)piperidin-1-yl)prop-2-en-1-one], for which the GI50 in assay [1] was in the range of 30 to 60 nM; with A431 cells, 600 to 1000 nM; with HCC827 cells it was 300 to 600 nM; in assay [2], 30 to 60 nM; in assay [3], 30 to 60 nM.

As to `C=CC(=O)N1CCC(Nc2cc3c(Nc4ccc(Oc5ccnc(N6CCC(O)C(F)(F)C6)c5)cc4F)ncnc3cc2OC)CC1` (centres unmarked) [Example 172, 1-(4-((4-((4-((2-(3,3-difluoro-4-hydroxypiperidin-1-yl)pyridin-4-yl)oxy)-2-fluorophenyl)amino)-7-methoxyquinazolin-6-yl)amino)piperidin-1-yl)prop-2-en-1-one], the GI50 in assay [1] was less than 30 nM; in the assay with A431 cells, 600 to 1000 nM; with HCC827 cells, 300 to 600 nM; in assay [2] it was less than 30 nM; in assay [3] it was less than 30 nM.

For the compound `C=CC(=O)N1CCC(Nc2cc3c(Nc4ccc(Oc5ccnc(N6CC[C@@H](O)C6)c5)cc4F)ncnc3cc2OC)CC1` [Example 173, (R)-1-(4-((4-((2-fluoro-4-((2-(3-hydroxypyrrolidin-1-yl)pyridin-4-yl)oxy)phenyl)amino)-7-methoxyquinazolin-6-yl)amino)piperidin-1-yl)prop-2-en-1-one], the GI50 in assay [1] was 100 to 300 nM; in the assay with A431 cells, no less than 1000 nM; in the assay on HCC827 cells, 300 to 600 nM; in assay [2], 100 to 300 nM; in assay [3] it was 60 to 100 nM.

As to `C=CC(=O)N1CCC(Nc2cc3c(Nc4ccc(Oc5ccnc(N6CC[C@H](O)C6)c5)cc4F)ncnc3cc2OC)CC1` [Example 174, (S)-1-(4-((4-((2-fluoro-4-((2-(3-hydroxypyrrolidin-1-yl)pyridin-4-yl)oxy)phenyl)amino)-7-methoxyquinazolin-6-yl)amino)piperidin-1-yl)prop-2-en-1-one], the GI50 in assay [1] was 100 to 300 nM; in the assay with A431 cells, no less than 1000 nM; in the assay on HCC827 cells, 600 to 1000 nM; in assay [2], 100 to 300 nM; in assay [3] it was 100 to 300 nM.

As for `C=CC(=O)N1CCC(Nc2cc3c(Nc4ccc(Oc5ccnc(N6CC7(CC(O)C7)C6)c5)cc4F)ncnc3cc2OC)CC1` [Example 175, 1-(4-((4-((2-fluoro-4-((2-(6-hydroxy-2-azaspiro[3.3]heptan-2-yl)pyridin-4-yl)oxy)phenyl)amino)-7-methoxyquinazolin-6-yl)amino)piperidin-1-yl)prop-2-en-1-one], the GI50 was 30 to 60 nM in assay [1]; no less than 1000 nM in the assay with A431 cells; 600 to 1000 nM with HCC827 cells; 30 to 60 nM in assay [2]; 30 to 60 nM in assay [3].

Turning to `C=CC(=O)N1CCC(Nc2cc3c(Nc4ccc(Oc5ccnc(-c6nc(C)c(C)s6)c5)cc4F)ncnc3cc2OC)CC1` [Example 176, 1-(4-((4-((4-((2-(4,5-dimethylthiazol-2-yl)pyridin-4-yl)oxy)-2-fluorophenyl)amino)-7-methoxyquinazolin-6-yl)amino)piperidin-1-yl)prop-2-en-1-one], the GI50 was less than 30 nM in assay [1]; 600 to 1000 nM with A431 cells; 100 to 300 nM in the assay on HCC827 cells; 30 to 60 nM in assay [2]; less than 30 nM in assay [3].

Regarding `C=CC(=O)N1CCC(Nc2cc3c(Nc4ccc(Oc5ccnc(-c6nc(C)sc6C)c5)cc4F)ncnc3cc2OC)CC1` [Example 177, 1-(4-((4-((4-((2-(2,5-dimethylthiazol-4-yl)pyridin-4-yl)oxy)-2-fluorophenyl)amino)-7-methoxyquinazolin-6-yl)amino)piperidin-1-yl)prop-2-en-1-one], the GI50 was less than 30 nM in assay [1]; 300 to 600 nM in the assay with A431 cells; 100 to 300 nM in the assay with HCC827 cells; less than 30 nM in assay [2]; less than 30 nM in assay [3].

As for `C=CC(=O)N1CCC(Nc2cc3c(Nc4ccc(Oc5ccnc(N6CCC(N)CC6)c5)cc4F)ncnc3cc2OC)CC1` [Example 178, 1-(4-((4-((4-((2-(4-aminopiperidin-1-yl)pyridin-4-yl)oxy)-2-fluorophenyl)amino)-7-methoxyquinazolin-6-yl)amino)piperidin-1-yl)prop-2-en-1-one], the GI50 was 300 to 600 nM in assay [1]; no less than 1000 nM in the assay with A431 cells; no less than 1000 nM in the assay on HCC827 cells; 300 to 600 nM in assay [2]; 300 to 600 nM in assay [3].

(Values after US20240398805A1, “QUINAZOLINE DERIVED COMPOUNDS AS EGFR INHIBITORS AND THEIR USES THEREOF” (ACCUTAR BIOTECHNOLOGY INC., priority 2021, published 2024).)
